Consider 20 compounds from ChEMBL document CHEMBL4316606, “Discovery of novel 2,3-dihydro-1H-inden-1-amine derivatives as selective monoamine oxidase B inhibitors” (Bioorg Med Chem Lett, 2019).

Structures are written as SMILES.

As usually defined, the IC50 is the concentration that gives 50% inhibition.

In one assay the target is T1, Amine oxidase [flavin-containing] A (Homo sapiens, UniProt P21397).
T1 sequence (P21397 whole entry): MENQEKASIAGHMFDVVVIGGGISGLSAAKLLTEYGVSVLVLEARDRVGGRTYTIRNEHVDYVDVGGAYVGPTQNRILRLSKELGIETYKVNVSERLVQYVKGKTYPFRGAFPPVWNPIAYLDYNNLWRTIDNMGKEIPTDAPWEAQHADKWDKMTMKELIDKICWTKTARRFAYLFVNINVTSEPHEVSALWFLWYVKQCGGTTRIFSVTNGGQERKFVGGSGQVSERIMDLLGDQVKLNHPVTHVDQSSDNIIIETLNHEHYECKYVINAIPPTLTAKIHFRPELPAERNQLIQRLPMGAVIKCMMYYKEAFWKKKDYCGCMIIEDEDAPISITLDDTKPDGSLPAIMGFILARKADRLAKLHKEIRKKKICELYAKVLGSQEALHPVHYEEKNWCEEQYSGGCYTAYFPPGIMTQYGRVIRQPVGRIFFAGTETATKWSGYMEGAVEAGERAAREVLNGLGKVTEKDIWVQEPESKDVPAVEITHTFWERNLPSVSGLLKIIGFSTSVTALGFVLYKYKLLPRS
Nature of the assay: Inhibition of recombinant human MAOA expressed in baculovirus infected BTI insect cells using p-tyramine as substrate preincubated for 30 mins followed by substrate addition and measured over 15 mins by Amplex red reagent/horseradish peroxidase coupled fluorescence assay.
Turning to `C#CCNC1CCc2c(NCc3cccc(Br)c3)cccc21` (stereo not drawn), the IC50 was 94300 nM. Still for that read-out and setting: under `C#CCNC1CCc2c(OCCc3cc(NC(=O)COC(C)=O)ccc3Cl)cccc21` (stereo not drawn) stands 436000 nM; under `C#CCNC1CCc2c(OCCc3cc(NC(=O)CO)ccc3Cl)cccc21` (stereo not drawn), 252000 nM. The same measure, in the same setting: the figure for `C#CCNC1CCc2c(SCc3ccc(F)cc3)cccc21` (stereo not drawn) is under 100 nM; for `C#CCNC1CCc2c(OCCc3cc(NC(C)=O)ccc3Cl)cccc21` (stereo not drawn) it is 85200 nM; for `C#CCNC1CCc2c(SCc3ccc(Cl)cc3)cccc21` (stereo not drawn) it is 230 nM. Same read-out and setting: the figure for `C#CCNC1CCc2c(NCc3ccc(C)cc3)cccc21` (stereo not drawn) is 43100 nM.

The target of the next assay is T2, Amine oxidase [flavin-containing] B (Homo sapiens, UniProt P27338).
T2 sequence (P27338 whole entry): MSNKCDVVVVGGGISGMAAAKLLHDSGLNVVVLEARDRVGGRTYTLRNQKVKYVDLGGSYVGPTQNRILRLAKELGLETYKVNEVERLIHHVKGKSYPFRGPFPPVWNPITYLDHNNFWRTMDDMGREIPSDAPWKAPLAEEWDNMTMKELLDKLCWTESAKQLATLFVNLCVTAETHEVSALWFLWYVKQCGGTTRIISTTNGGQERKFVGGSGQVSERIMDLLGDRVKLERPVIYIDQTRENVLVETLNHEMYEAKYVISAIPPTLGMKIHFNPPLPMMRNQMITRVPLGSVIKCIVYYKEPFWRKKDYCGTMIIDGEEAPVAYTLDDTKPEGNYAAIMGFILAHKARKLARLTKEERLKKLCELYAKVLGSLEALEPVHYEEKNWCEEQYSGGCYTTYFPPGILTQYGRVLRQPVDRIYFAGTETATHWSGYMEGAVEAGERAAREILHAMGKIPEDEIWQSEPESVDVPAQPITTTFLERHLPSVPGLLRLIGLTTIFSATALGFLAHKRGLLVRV
Kind of assay: Inhibition of recombinant human MAOB expressed in baculovirus infected BTI insect cells using p-tyramine as substrate preincubated for 30 mins followed by substrate addition and measured over 15 mins by Amplex red reagent/horseradish peroxidase coupled fluorescence assay.
In the case of `C#CCNC1CCc2c(NCc3ccccc3)cccc21` (stereo not drawn), the IC50 was over 20000 nM. Still for that read-out and setting: the figure for `C#CCNC1CCc2c(NCc3cccc(Br)c3)cccc21` (stereo not drawn) is 110 nM. Same read-out and setting: the figure for `C#CCNC1CCc2c(SCc3ccc(C(C)(C)C)cc3)cccc21` (stereo not drawn) is over 20000 nM. The same measure, in the same setting: under `C#CCNC1CCc2c(OCCc3cc(NC(=O)COC(C)=O)ccc3Cl)cccc21` (stereo not drawn) stands 480 nM; under `C#CCNC1CCc2c(OCCc3cc(NC(=O)c4ccccc4)ccc3Cl)cccc21` (stereo not drawn), over 20000 nM; under `C#CCNC1CCc2c(OCCc3cc(NC(=O)CO)ccc3Cl)cccc21` (stereo not drawn), 270 nM. On to `C#CCNC1CCc2c(NCc3cccc(F)c3)cccc21` (stereo not drawn), for which the 50% inhibitory concentration (IC50) turned out to be 1860 nM. Turning to `C#CCNC1CCc2c(OCCc3cccc(NC(=O)c4ccc(Cl)cc4)c3)cccc21` (stereo not drawn), the IC50 came to 360 nM. As to `C#CCNC1CCc2c(OCCc3cccc4ccccc34)cccc21` (stereo not drawn), the IC50 is 1900 nM. Same read-out and setting: the figure for `C#CCNC1CCc2c(NCc3ccc(F)cc3)cccc21` (stereo not drawn) is 980 nM; for `C#CCNC1CCc2c(SCc3ccc(F)cc3)cccc21` (stereo not drawn) it is 240 nM. Same read-out and setting: under `C#CCNC1CCc2c(OCCc3cc(NC(C)=O)ccc3Cl)cccc21` (stereo not drawn) stands 590 nM; under `C#CCNC1CCc2c(OCCc3cc(NC(=O)c4cccc(F)c4)ccc3Cl)cccc21` (stereo not drawn), over 20000 nM. Still for that read-out and setting: under `C#CCNC1CCc2c(SCc3ccc(Cl)cc3)cccc21` (stereo not drawn) stands 180 nM. `C#CCNC1CCc2c(OCCc3cc(NC(=O)c4ccc(Cl)cc4)ccc3Cl)cccc21` (stereo not drawn): the IC50 is over 20000 nM. For the compound `C#CCNC1CCc2c(NCc3cccc(C)c3)cccc21` (stereo not drawn), the IC50 is 710 nM. Same read-out and setting: the figure for `C#CCNC1CCc2c(OCCc3cc(NC(=O)c4ccc(F)cc4)ccc3Cl)cccc21` (stereo not drawn) is 5100 nM; for `C#CCNC1CCc2c(NCc3ccc(C)cc3)cccc21` (stereo not drawn) it is 250 nM. On the same count and under the same terms, under `C#CCNC1CCc2c(OCCc3cc(NC(=O)C(C)(C)C)ccc3F)cccc21` (stereo not drawn) stands over 20000 nM; under `C#CCNC1CCc2c(OCc3cccc(F)c3)cccc21` (stereo not drawn), 2700 nM.

For the next assay, the species on record is Homo sapiens. Kind of assay: Selectivity index, ratio of IC50 for recombinant human MAOA expressed in baculovirus infected BTI insect cells to IC50 for recombinant human MAOB expressed in baculovirus infected BTI insect cells.
Turning to `C#CCNC1CCc2c(NCc3cccc(Br)c3)cccc21` (stereo not drawn), the Ratio IC50 was determined as 857.

As for `C#CCNC1CCc2c(OCCc3cc(NC(=O)COC(C)=O)ccc3Cl)cccc21` (stereo not drawn), the Ratio IC50 amounted to 909. Same read-out and setting: under `C#CCNC1CCc2c(OCCc3cc(NC(=O)CO)ccc3Cl)cccc21` (stereo not drawn) stands 934; under `C#CCNC1CCc2c(OCCc3cc(NC(C)=O)ccc3Cl)cccc21` (stereo not drawn), 144. The same measure, in the same setting: under `C#CCNC1CCc2c(SCc3ccc(Cl)cc3)cccc21` (stereo not drawn) stands 1.2; under `C#CCNC1CCc2c(NCc3ccc(C)cc3)cccc21` (stereo not drawn), 172.
